Earlier results as cited in patent US20180355410A1, “DIAGNOSIS AND TREATMENT OF INFECTIOUS DISEASE” (Cambridge Enterprise Limited, priority 2015, published 2018).

System: Neisseria gonorrhoeae
Settings: EUCAST clinical breakpoint valid from 1st January 2015

MIC R-breakpoint (resistant): > 0.5 µg/mL
MIC S-breakpoint (susceptible): ≤ 0.25 µg/mL
SMILES: CC[C@H]1OC(=O)[C@H](C)[C@@H](O[C@H]2C[C@@](C)(OC)[C@@H](O)[C@H](C)O2)[C@H](C)[C@@H](O[C@@H]2O[C@H](C)C[C@H](N(C)C)[C@H]2O)[C@](C)(O)C[C@@H](C)CN(C)[C@H](C)[C@@H](O)[C@]1(C)O [Azithromycin]
